# Target: T1, human PKCθ full length enzyme (Homo sapiens, UniProt Q04759)
# T1 construct: human PKCθ full length enzyme (Panvera Cat# P2996); purchased Panvera P2996
# Assay: PKCθ IMAP assay (fluorescence polarization)
# Assay type: biochemical
# Conditions: human PKCθ full length enzyme, IMAP; average value; read-out: IC50 PKCθ IMAP
# Method: The reaction buffer was prepared by diluting the 5× stock reaction buffer and adding DTT to obtain a concentration of 3.0 mM. […] The final concentration of compound was 2× and 10% DMSO. DMSO was added to the rest of the master mix to increase the concentration to 10%. 10 μl of the master mix containing 10% DMSO was added to the rest of the wells on the plate except the 2nd column. 20 μl was transferred from the first column to the 2nd column. The compounds were serially diluted in 2:1 ratio starting from the 2nd column. A 2× ([…]) PKCθ solution was made in the reaction buffer. 10 μl of the PKCθ solution was added to every well to achieve these final concentrations: PKCθ—1 nM; ATP—6 μM; peptide—100 nM; DMSO—5%. Samples were incubated for 25 minutes at room temperature. The binding reagent was prepared by diluting the beads in 1× binding buffer to 800:1. 50 μl of the binding reagent was added to every well and incubated for 20 minutes. FP was measured using Envision2100 (PerkinElmer Life Sciences). Wells with no ATPs and wells with no enzymes were used as controls.
# T1 sequence (Q04759 whole entry): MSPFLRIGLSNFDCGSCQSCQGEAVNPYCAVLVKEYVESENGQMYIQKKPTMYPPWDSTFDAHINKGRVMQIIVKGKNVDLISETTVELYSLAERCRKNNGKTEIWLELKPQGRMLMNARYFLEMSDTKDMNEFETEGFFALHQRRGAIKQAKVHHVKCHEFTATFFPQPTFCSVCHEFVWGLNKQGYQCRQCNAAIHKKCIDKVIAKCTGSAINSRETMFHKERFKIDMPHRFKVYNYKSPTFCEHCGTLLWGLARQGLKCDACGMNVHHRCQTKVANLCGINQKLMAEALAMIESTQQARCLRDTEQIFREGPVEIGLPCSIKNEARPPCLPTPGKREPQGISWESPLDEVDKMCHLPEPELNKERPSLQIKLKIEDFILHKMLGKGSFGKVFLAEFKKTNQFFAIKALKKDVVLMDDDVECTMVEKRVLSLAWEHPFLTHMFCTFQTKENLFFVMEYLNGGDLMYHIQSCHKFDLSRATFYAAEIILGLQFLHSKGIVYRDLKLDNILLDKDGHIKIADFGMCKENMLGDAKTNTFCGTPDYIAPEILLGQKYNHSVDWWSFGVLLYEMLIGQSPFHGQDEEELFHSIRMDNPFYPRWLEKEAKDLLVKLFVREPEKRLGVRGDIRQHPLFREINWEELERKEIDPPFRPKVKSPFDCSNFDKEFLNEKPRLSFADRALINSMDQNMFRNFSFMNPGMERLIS
row,Molecule,IC50 [nM]
1,4-(1H-indol-4-ylamino)-5-(4-methoxy-3-{2-[(3-pyrrolidin-1-ylpropyl)amino]ethoxy}phenyl)nicotinonitrile [Compound 340],8
2,4-(1H-indol-4-ylamino)-5-(4-{2-[(3-phenylpropyl)amino]ethoxy}phenyl)nicotinonitrile [Compound 347],4
3,4-(1H-indol-4-ylamino)-5-[4-methoxy-3-(2-{[2-(1-methylpyrrolidin-2-yl)ethyl]amino}ethoxy)phenyl]nicotinonitrile [Compound 341],3
4,4-[(4-methyl-1H-indol-5-yl)amino]-5-(5-{[(3-phenylpropyl)amino]methyl}-2-furyl)nicotinonitrile [Compound 409],27
5,4-[(4-methyl-1H-indol-5-yl)amino]-5-[5-(pyrrolidin-1-ylmethyl)-2-furyl]nicotinonitrile [Compound 410],35
6,4-[(4-methyl-1H-indol-5-yl)amino]-5-[5-(thiomorpholin-4-ylmethyl)-2-furyl]nicotinonitrile [Compound 411],8
7,5-(1-benzofuran-3-yl)-4-(1H-indol-4-ylamino)nicotinonitrile [Compound 352],20
8,"5-(2,4-dimethoxyphenyl)-4-(1H-indol-4-ylamino)nicotinonitrile [Compound 337]",100
9,5-{5-[(cyclohexylamino)methyl]-1-benzofuran-2-yl}-4-[(4-methyl-1H-indol-5-yl)amino]nicotinonitrile [Compound 387],1
10,"COc1ccc(-c2cncc(C#N)c2NC[C@H]2CCC[C@@H](CN)C2)cc1OC (relative stereo) [Compound 443, 4-({[cis-3-(aminomethyl)cyclohexyl]methyl}amino)-5-(3,4-dimethoxyphenyl)nicotinonitrile]",1130
11,"COc1ccc(-c2cncc(C#N)c2Nc2ccc3c(c2)CCC3)cc1OC [Compound 107, 4-(2,3-dihydro-1H-inden-5-ylamino)-5-(3,4-dimethoxyphenyl)nicotinonitrile]",9320
12,"COc1ccc(-c2cncc(C#N)c2Nc2ccc3[nH]c(C)cc3c2)cc1OC [Compound 110, 5-(3,4-dimethoxyphenyl)-4-[(2-methyl-1H-indol-5-yl)amino]nicotinonitrile]",65
13,"COc1ccc(-c2cncc(C#N)c2Nc2ccc3c(c2)OCO3)cc1OC [Compound 111, 4-(1,3-benzodioxol-5-ylamino)-5-(3,4-dimethoxyphenyl)nicotinonitrile]",580
14,"COc1ccc(-c2cncc(C#N)c2Nc2ccc3ccccc3c2)cc1OC [Compound 112, 5-(3,4-dimethoxyphenyl)-4-(2-naphthylamino)nicotinonitrile]",1130
15,"N#Cc1cncc(-c2cccc(Br)c2)c1Nc1ccc2[nH]ccc2c1 [Compound 113, 5-(3-bromophenyl)-4-(1H-indol-5-ylamino)nicotinonitrile]",50
16,"N#Cc1cncc(-c2cccc(Br)c2)c1Nc1cccc2[nH]ccc12 [Compound 114, 5-(3-bromophenyl)-4-(1H-indol-4-ylamino)nicotinonitrile]",2
17,"N#Cc1cncc(-c2ccccc2Br)c1Nc1ccc2[nH]ccc2c1 [Compound 115, 5-(2-bromophenyl)-4-(1H-indol-5-ylamino)nicotinonitrile]",310

row,Molecule,IC50 [nM]
1,"N#Cc1cncc(-c2ccc(Br)cc2)c1Nc1ccc2[nH]ccc2c1 [Compound 116, 5-(4-bromophenyl)-4-(1H-indol-5-ylamino)nicotinonitrile]",70
2,"N#Cc1cncc(-c2cccc(-c3ccc(N)cc3)c2)c1Nc1ccc2[nH]ccc2c1 [Compound 119, 5-(4′-aminobiphenyl-3-yl)-4-(1H-indol-5-ylamino)nicotinonitrile]",300
3,"N#Cc1cncc(-c2cccc(-c3ccc(C(=O)NC4CCCC4)cc3)c2)c1Nc1ccc2[nH]ccc2c1 [Compound 123, 3′-[5-cyano-4-(1H-indol-5-ylamino)pyridin-3-yl]-N-cyclopentylbiphenyl-4-carboxamide]",180
4,"N#Cc1cncc(-c2cccc(-c3cc[nH]c3)c2)c1Nc1ccc2[nH]ccc2c1 [Compound 124, 4-(1H-indol-5-ylamino)-5-[3-(1H-pyrrol-3-yl)phenyl]nicotinonitrile]",1100
5,"Cc1ccc(-c2cccc(-c3cncc(C#N)c3Nc3ccc4[nH]ccc4c3)c2)cc1 [Compound 128, 4-(1H-indol-5-ylamino)-5-(4′-methylbiphenyl-3-yl)nicotinonitrile]",130
6,"N#Cc1cccc(-c2cccc(-c3cncc(C#N)c3Nc3ccc4[nH]ccc4c3)c2)c1 [Compound 132, 5-(3′-cyanobiphenyl-3-yl)-4-(1H-indol-5-ylamino)nicotinonitrile]",110
7,"N#Cc1cncc(-c2cccc(-c3cccs3)c2)c1Nc1ccc2[nH]ccc2c1 [Compound 136, 4-(1H-indol-5-ylamino)-5-[3-(2-thienyl)phenyl]nicotinonitrile]",130
8,"Cc1csc(-c2cccc(-c3cncc(C#N)c3Nc3ccc4[nH]ccc4c3)c2)c1 [Compound 139, 4-(1H-indol-5-ylamino)-5-[3-(4-methyl-2-thienyl)phenyl]nicotinonitrile]",250
9,"CC(=O)c1ccc(-c2cccc(-c3cncc(C#N)c3Nc3ccc4[nH]ccc4c3)c2)s1 [Compound 140, 5-[3-(5-acetyl-2-thienyl)phenyl]-4-(1H-indol-5-ylamino)nicotinonitrile]",110
10,"N#Cc1cncc(-c2cccc(-c3ccoc3)c2)c1Nc1ccc2[nH]ccc2c1 [Compound 142, 5-[3-(3-furyl)phenyl]-4-(1H-indol-5-ylamino)nicotinonitrile]",120
11,"N#Cc1cncc(-c2cccc(-c3cccs3)c2)c1Nc1cccc2[nH]ccc12 [Compound 147, 4-(1H-indol-4-ylamino)-5-[3-(2-thienyl)phenyl]nicotinonitrile]",20
12,"N#Cc1cncc(-c2cccc(-c3ccc(C(=O)NC4CCCC4)cc3)c2)c1Nc1cccc2[nH]ccc12 [Compound 148, 3′-[5-cyano-4-(1H-indol-4-ylamino)pyridin-3-yl]-N-cyclopentylbiphenyl-4-carboxamide]",40
13,"N#Cc1cncc(-c2cccc(-c3ccc(C(=O)N4CCCC4)cc3)c2)c1Nc1cccc2[nH]ccc12 [Compound 149, 4-(1H-indol-4-ylamino)-5-[4′-(pyrrolidin-1-ylcarbonyl)biphenyl-3-yl]nicotinonitrile]",70
14,"N#Cc1cncc(-c2cccc(-c3ccc(C=O)s3)c2)c1Nc1ccc2[nH]ccc2c1 [Compound 150, 5-[3-(5-formyl-2-thienyl)phenyl]-4-(1H-indol-5-ylamino)nicotinonitrile]",120
15,"COCCOc1cccc(-c2cncc(C#N)c2Nc2cccc3[nH]ccc23)c1 [Compound 164, 4-(1H-indol-4-ylamino)-5-[3-(2-methoxyethoxy)phenyl]nicotinonitrile]",30
16,"CN1CCN(CCOc2cccc(-c3cncc(C#N)c3Nc3cccc4[nH]ccc34)c2)CC1 [Compound 168, 4-(1H-indol-4-ylamino)-5-{3-[2-(4-methylpiperazin-1-yl)ethoxy]phenyl}nicotinonitrile]",20
17,"N#Cc1cncc(-c2cccc(OCCN3CCCCC3)c2)c1Nc1cccc2[nH]ccc12 [Compound 171, 4-(1H-indol-4-ylamino)-5-[3-(2-piperidin-1-ylethoxy)phenyl]nicotinonitrile]",50

# — patent US7781591B2, “Substituted 3-cyanopyridines as protein kinase inhibitors” (Wyeth LLC, priority 2006, dated 2010)
